# Test system: P. viticola
# Test: Protection of greenhouse vine plants against downy mildew (sporulating leaf area, leaf disks, 6 dpi)
# Type: in vivo, Plasmopara viticola
# Conditions: A1 1 g/L, Pip 0.1 mM, alone or combined, FIG. 5
# Procedure: Grapevine (V. vinifera cv. Marselan) herbaceous cuttings were grown in individual pots (10×7×7 cm) containing a mixture of peat and perlite (4:1, vol/vol) in a greenhouse at 25±4 and 18±7° C. (day and night, respectively) until they developed 6-8 leaves. Artificial illumination was supplemented when the natural light was less than 200 μmol. m.^−2 s^−1 during the 16 h light period. Plants were watered with a fertilization solution (Topfert2 Plantin. France).
# Alginates A1, A2, A3 with a degree of polymerization (DP) of 491, 228, 355 respectively were used. They were prepared at 1, 2 and 4 g/L in ultrapure water and applied to both the upper and lower faces of leaves until the point of run-off using a manual sprayer. Plants were maintained in the greenhouse in the conditions described above. Ultrapure water was used as negative control and sprayed in the same manner. […]
# Briefly, 6 days post-inoculation (dpi), leaf disks were punched out and placed with the abaxial side uppermost, on a moist Whatman paper, in a closed plastic box. […] Disease intensity was assessed by measuring the leaf area covered by the pathogen sporulation using a “macro” developed for the image analysis Visilog 6.9 software (Noesis, France; Kim Khiook et al., 2013) and the disease reduction rate is calculated as follows: (1−(treated sporulating area/control sporulating area))×100. […]
compound,measurement,value
"O=C(O)C1CCCCN1 (stereo not shown) [Pip, pipecolic acid]",rate protection against P. viticola,around 35%
